Consider 25 compounds from patent US20220135591A1, “HETEROCYCLIC COMPOUNDS AS INHIBITORS OF MONOACYLGLYCEROL LIPASE (MAGL)” (Hoffmann-La Roche Inc., priority 2019, published 2022).

The target of the test is T1, MAGL (Homo sapiens, UniProt Q99685).
T1 sequence (Q99685 1-303): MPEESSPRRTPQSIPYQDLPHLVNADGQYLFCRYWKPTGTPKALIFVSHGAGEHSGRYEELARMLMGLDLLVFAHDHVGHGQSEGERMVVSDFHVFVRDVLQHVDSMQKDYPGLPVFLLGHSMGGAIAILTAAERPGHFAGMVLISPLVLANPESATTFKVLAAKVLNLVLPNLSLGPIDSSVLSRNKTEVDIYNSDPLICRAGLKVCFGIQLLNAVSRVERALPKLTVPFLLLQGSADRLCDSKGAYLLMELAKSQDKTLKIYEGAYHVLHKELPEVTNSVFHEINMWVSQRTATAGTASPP
The test can be described thus: 2-AG assay: MAGL inhibitory activity by hydrolysis of 2-arachidonoylglycerol to arachidonic acid, mass spectrometry. The following applies: 2-AG assay (values marked [b]). Format: biochemical. On the procedure: Alternatively, compounds were profiled for MAGL inhibitory activity by determining the enzymatic activity by following the hydrolysis of the natural substrate 2-arachidonoylglycerol (2-AG) resulting in arachidonic acid, which can be followed by mass spectrometry. This assay is hereinafter abbreviated “2-AG assay”.
The 2-AG assay was carried out in 384 well assay plates (PP, Greiner Cat #784201) in a total volume of 20 μL. Compound dilutions were made in 100% DMSO (VWR Chemicals 23500.297) in a polypropylene plate in 3-fold dilution steps to give a final concentration range in the assay from 12.5 μM to […]. 0.25 μL compound dilutions (100% DMSO) were added to 9 μL MAGL in assay buffer (50 mM TRIS (GIBCO, 15567-027), 1 mM EDTA (Fluka, 03690-100 mL), 0.01% (v/v) Tween. After shaking, the plate was incubated for 15 min at RT. To start the reaction, 10 μL 2-arachidonoylglycerol in assay buffer was added. The final concentrations in the assay was […] and 8 μM 2-arachidonoylglyerol. After shaking and 30 min incubation at RT, the reaction was quenched by the addition of 40 μL of ACN containing 4 μM of d8-arachidonic acid. The amount of arachidonic acid was traced by an online SPE system (Agilent Rapidfire) coupled to a triple quadrupole mass spectrometer (Agilent 6460). A C18 SPE cartridge (G9205A) was used in an ACN/water liquid setup. The mass spectrometer was operated in negative electrospray mode following the mass transitions 303.1→259.1 for arachidonic acid and 311.1→267.0 for d8-arachidonic acid. The activity of the compounds was calculated based on the ratio of intensities [arachidonic acid/d8-arachidonic acid].

For orientation: IC50 means the midpoint of a concentration-inhibition curve. `Cc1ccc2oc(N3CCN(C(=O)c4cnc(-c5cnn(CC(C)(C)C)c5)c(C)c4)CC3)nc2n1` [Example 248, [6-[1-(2,2-dimethylpropyl)pyrazol-4-yl]-5-methylpyridin-3-yl]-[4-(5-methyl-[1,3]oxazolo[4,5-b]pyridin-2-yl)piperazin-1-yl]methanone] displayed an IC50 of 14 nM.

Take `CC(C)(C)Cn1cc(-c2ncc(C(=O)N3CCN(c4nc5nc(Cl)ccc5o4)CC3)cc2F)nn1` [Example 241, (4-(5-chlorooxazolo[4,5-b]pyridin-2-yl)piperazin-1-yl)(5-fluoro-6-(1-neopentyl-1H-1,2,3-triazol-4-yl)pyridin-3-yl)methanone]: the midpoint of inhibition, the IC50, lay at 27 nM.

The compound `COc1cc(C(=O)N2CCN(c3nc4nc(Cl)ccc4o3)CC2)ccc1-c1cn(CC(C)(C)C)nn1` [Example 237, (4-(5-chlorooxazolo[4,5-b]pyridin-2-yl)piperazin-1-yl)(3-methoxy-4-(1-neopentyl-1H-1,2,3-triazol-4-yl)phenyl)methanone] had an IC50 of 7 nM.

Take `Cc1ccc2oc(N3CCN(C(=O)N4CC(COc5ccc(F)cc5Cl)C4)CC3)nc2n1` [Example 252, [3-[(2-chloro-4-fluorophenoxy)methyl]azetidin-1-yl]-[4-(5-methyl-[1,3]oxazolo[4,5-b]pyridin-2-yl)piperazin-1-yl]methanone]: 1240 nM corresponded to half-maximal inhibition (IC50).

`Cc1ccc2oc(N3CCN(C(=O)c4ccc(-c5nnc(CC(C)(C)C)n5C)cc4)CC3)nc2n1` [Example 74, [4-[5-(2,2-dimethylpropyl)-4-methyl-1,2,4-triazol-3-yl]phenyl]-[4-(5-methyloxazolo[4,5-b]pyridin-2-yl)piperazin-1-yl]methanone] yielded an IC50 of 327 nM.

Compound `CC(C)(C)Cn1ncc(-c2ncc(C(=O)N3CCN(c4nc5nc(Cl)ccc5o4)CC3)cc2F)n1` [Example 243, (4-(5-chlorooxazolo[4,5-b]pyridin-2-yl)piperazin-1-yl)(5-fluoro-6-(2-neopentyl-2H-1,2,3-triazol-4-yl)pyridin-3-yl)methanone] yielded an IC50 of 25 nM.

With `CC(C)(C)c1nc(-c2c(F)cc(C(=O)N3CCN(c4nc5nc(Cl)ccc5o4)CC3)cc2F)no1` [Example 80, [4-(5-tert-butyl-1,2,4-oxadiazol-3-yl)-3,5-difluoro-phenyl]-[4-(5-chlorooxazolo[4,5-b]pyridin-2-yl)piperazin-1-yl]methanone], the IC50 came to 21 nM.

For the compound `CC(C)(CF)c1nnc(-c2ccc(C(=O)N3CCN(c4nc5nc(Cl)ccc5o4)CC3)cc2F)o1` [Example 280, [4-(5-chlorooxazolo[4,5-b]pyridin-2-yl)piperazin-1-yl]-[3-fluoro-4-[5-(2-fluoro-1,1-dimethyl-ethyl)-1,3,4-oxadiazol-2-yl]phenyl]methanone], the IC50 was 119 nM. Against the preceding compound, the IC50 is about 5.7-fold higher.

In turn, `CC(C)(F)Cn1cc(-c2ccc(C(=O)N3CCN(c4nc5nc(Cl)ccc5o4)CC3)cc2)nn1` [Example 132, (4-(5-chlorooxazolo[4,5-b]pyridin-2-yl)piperazin-1-yl)(4-(1-(2-fluoro-2-methylpropyl)-1H-1,2,3-triazol-4-yl)phenyl)methanone] had an IC50 of 49 nM.

Take `CC(C)(C)Cn1nncc1-c1ccc(C(=O)N2CCN(c3nc4nc(Cl)ccc4o3)CC2)cc1C(F)(F)F` [Example 270, (4-(5-chlorooxazolo[4,5-b]pyridin-2-yl)piperazin-1-yl)(4-(1-neopentyl-1H-1,2,3-triazol-5-yl)-3-(trifluoromethyl)phenyl)methanone]: the IC50 worked out at 323 nM.

`CC1CN(c2nc3nc(Cl)ccc3o2)CCN1C(=O)c1ccc(-c2cn(CC(C)(C)C)nn2)cc1` (stereo not shown) [Example 295, [4-(5-chlorooxazolo[4,5-b]pyridin-2-yl)-2-methyl-piperazin-1-yl]-[4-[1-(2,2-dimethylpropyl)triazol-4-yl]phenyl]methanone] showed an IC50 of 243 nM.

In turn, `Cc1ccc2oc(N3CCN(C(=O)c4cnc(-c5nnn(CC(C)(C)C)n5)c(C)c4)CC3)nc2n1` [Example 309, [6-[2-(2,2-dimethylpropyl)tetrazol-5-yl]-5-methyl-3-pyridyl]-[4-(5-methyloxazolo[4,5-b]pyridin-2-yl)piperazin-1-yl]methanone] yielded an IC50 of 51 nM.

Compound `Cc1cc(C(=O)N2CCN(c3nc4nc(Cl)ccc4o3)CC2)cnc1OCC1CCCCO1` (stereo not shown) [Example 170, (4-(5-chlorooxazolo[4,5-b]pyridin-2-yl)piperazin-1-yl)(5-methyl-6-((tetrahydro-2H-pyran-2-yl)methoxy)pyridin-3-yl)methanone] yielded an IC50 of 57 nM. The IC50 values of the last two compounds are within 1.5-fold of each other.

Consider `COc1cc(C(=O)N2CCN(c3nc4nc(C)ccc4o3)CC2)cnc1-c1nnn(CC(C)(C)C)n1` [Example 310, [6-[2-(2,2-dimethylpropyl)tetrazol-5-yl]-5-methoxy-3-pyridyl]-[4-(5-methyloxazolo[4,5-b]pyridin-2-yl)piperazin-1-yl]methanone], for which half-maximal inhibition (IC50) required 167 nM.

`Cc1ccc2oc(N3CCN(C(=O)c4ccc(-c5cn(CC(C)(C)F)nn5)cc4)CC3)nc2n1` [Example 133, (4-(1-(2-fluoro-2-methylpropyl)-1H-1,2,3-triazol-4-yl)phenyl)(4-(5-methyloxazolo[4,5-b]pyridin-2-yl)piperazin-1-yl)methanone] displayed an IC50 of 94 nM.

`Cc1ccc2oc(N3CCN(C(=O)c4cnc(OCC5(C(F)(F)F)CC5)c(C)n4)CC3)nc2n1` [Example 167, [4-(5-methyloxazolo[4,5-b]pyridin-2-yl)piperazin-1-yl]-[6-methyl-5-[[1-(trifluoromethyl)cyclopropyl]methoxy]pyrazin-2-yl]methanone] displayed an IC50 of 63 nM.

`O=C(c1ccc(-c2noc(C34CC(C3)C4)n2)cc1)N1CCN(c2nc3nc(Cl)ccc3o2)CC1` [Example 105, [4-[5-(3-bicyclo[1.1.1]pentanyl)-1,2,4-oxadiazol-3-yl]phenyl]-[4-(5-chlorooxazolo[4,5-b]pyridin-2-yl)piperazin-1-yl]methanone]: the IC50 turned out to be 9 nM. Compared with the last compound, the IC50 is about 7-fold lower.

Turning to `Cc1ccc2oc(N3CCN(C(=O)c4cc(F)c(-c5nnn(CC(C)(C)C)n5)c(F)c4)CC3)nc2n1` [Example 299, [4-[2-(2,2-dimethylpropyl)tetrazol-5-yl]-3,5-difluoro-phenyl]-[4-(5-methyloxazolo[4,5-b]pyridin-2-yl)piperazin-1-yl]methanone], inhibition was half-maximal at 31 nM (IC50). Against the preceding compound, the IC50 is about 3.4-fold higher.

As to `C[C@@H]1CN(C(=O)c2ccc(-c3cn(CC(C)(C)C)nn3)cc2)CCN1c1nc2nc(Cl)ccc2o1` [Example 273, [(3R)-4-(5-chlorooxazolo[4,5-b]pyridin-2-yl)-3-methyl-piperazin-1-yl]-[4-[1-(2,2-dimethylpropyl)triazol-4-yl]phenyl]methanone], 20 nM corresponded to half-maximal inhibition (IC50).

Compound `Cc1ccc2oc(N3CCN(C(=O)c4cnc(-n5cnc(C(C)(C)C)n5)c(C)c4)CC3)nc2n1` [Example 128, [6-(3-tert-butyl-1,2,4-triazol-1-yl)-5-methylpyridin-3-yl]-[4-(5-methyl-[1,3]oxazolo[4,5-b]pyridin-2-yl)piperazin-1-yl]methanone] came in with an IC50 of 107 nM. Compared with the last compound, the IC50 is about 5.3-fold higher.

`CC(C)(C#N)Cn1cc(-c2ccc(C(=O)N3CCN(c4nc5nc(Cl)ccc5o4)CC3)cc2)nn1` [Example 131, 3-[4-[4-[4-(5-chlorooxazolo[4,5-b]pyridin-2-yl)piperazine-1-carbonyl]phenyl]triazol-1-yl]-2,2-dimethyl-propanenitrile] had an IC50 of 35 nM.

Take `Cc1cc(C(=O)N2CCN(c3nc4nc(Cl)ccc4o3)CC2)cnc1OC[C@@H](F)CF` [Example 174, (R)-(4-(5-chlorooxazolo[4,5-b]pyridin-2-yl)piperazin-1-yl)(6-(2,3-difluoropropoxy)-5-methylpyridin-3-yl)methanone]: the IC50 was 706 nM.

The compound `O=C(c1cnc(OCC2(C(F)(F)F)CC2)c(C(F)(F)F)c1)N1CCN(c2nc3nc(Cl)ccc3o2)CC1` [Example 154, (4-(5-chlorooxazolo[4,5-b]pyridin-2-yl)piperazin-1-yl)(5-(trifluoromethyl)-6-((1-(trifluoromethyl)cyclopropyl)methoxy)pyridin-3-yl)methanone] returned an IC50 of 8 nM.

Consider `CC(C)(C)Cn1cc(-c2ccc(C(=O)N3CCN(c4nc5nc(Cl)ccc5o4)CC3)cc2F)nn1` [Example 86, (4-(5-chlorooxazolo[4,5-b]pyridin-2-yl)piperazin-1-yl)(3-fluoro-4-(1-neopentyl-1H-1,2,3-triazol-4-yl)phenyl)methanone], for which half-maximal inhibition (IC50) required 2 nM. Compared with the last compound, the IC50 is about 4-fold lower.

As for `Cc1cc(C(=O)N2CCN(c3nc4nc(Cl)ccc4o3)CC2)cnc1OCC1(C)CC1` [Example 156, (4-(5-chlorooxazolo[4,5-b]pyridin-2-yl)piperazin-1-yl)(5-methyl-6-((1-methylcyclopropyl)methoxy)pyridin-3-yl)methanone], the midpoint of inhibition, the IC50, lay at 21 nM.
